The text below walks through data of ChEMBL document CHEMBL3872235, “Synthesis and biological evaluation of allylated mono-carbonyl analogues of curcumin (MACs) as anti-cancer agents for cholangiocarcinoma” (Bioorg Med Chem Lett, 2016).

Where only a bound is given, the exact number is not on record here.

Data set [1] is described as follows: Cytotoxicity against RBEC assessed as cell survival at 20 uM after 24 hrs by MTT assay. The class given is toxicity. As to conditions: rat, RBEC cells; read-out: Survival.
The nature of data set [2]: Cytotoxicity against HUCCA cells assessed as decrease in cell viability after 24 hrs by MTT assay. Type of data set: functional, cell-based. The following applies: Homo sapiens.
Data set [3] is described as follows: Cytotoxicity against human QBC939 cells assessed as decrease in cell viability after 24 hrs by MTT assay. The class given is functional, cell-based. As to conditions: QBC939, 24 h.
The nature of data set [4]: Cytotoxicity against RBEC assessed as decrease in cell viability after 24 hrs by MTT assay. Type of data set: toxicity. The following applies: rat, RBEC cells.
Data set [5] in a line: Cytotoxicity against human HL7702 cells assessed as decrease in cell viability after 24 hrs by MTT assay. The class given is functional, cell-based. The following applies: L02, 24 h.
Data set [6] in a line: Cytotoxicity against HIBEC assessed as decrease in cell viability after 24 hrs by MTT assay. The class given is toxicity. As to conditions: human, HIBEC cells.
The nature of data set [7]: Drug degradation in phosphate buffer at pH 7.4 measured up to 25 mins by UV-Vis spectral analysis. Type of data set: physicochemical. As to conditions: for Stability: buffer, pH 7.4, 25 min.
A short description of data set [8]: Cell cycle arrest in HUCCA cells assessed as accumulation at G2/M phase after 24 hrs by flow cytometric analysis. As to conditions: Homo sapiens. The class given is functional, cell-based.
The nature of data set [9]: Cell cycle arrest in human QBC939 cells assessed as accumulation at G2/M phase after 24 hrs by flow cytometric analysis. Type of data set: functional, cell-based.
Data set [10] in a line: Cell cycle arrest in RBEC cells assessed as accumulation at G2/M phase after 24 hrs by flow cytometric analysis. Type of data set: ADME, cell-based. As to conditions: rat.
Data set [11] relates to HUCCA. The data set is described as follows: Increase in p53 expression in HUCCA cells after 24 hrs by Western blot analysis. The following applies: Homo sapiens. The class given is functional, cell-based.
Data set [12] in a line: Decrease in Cdc2 expression in HUCCA cells after 24 hrs by Western blot analysis. Type of data set: functional, cell-based. The following applies: Homo sapiens.
Data set [13] is described as follows: Increase in p53 expression in RBEC after 24 hrs by Western blot analysis. The following applies: rat.
Data set [14] can be described thus: Decrease in Cdc2 expression in RBEC after 24 hrs by Western blot analysis. Type of data set: ADME. The following applies: rat.
The subject of data set [15] is QBC939. As to the kind of experiment: Increase in p53 expression in human QBC939 cells after 24 hrs by Western blot analysis. Type of data set: functional, cell-based.
The nature of data set [16]: Decrease in Cdc2 expression in human QBC939 cells after 24 hrs by Western blot analysis. The class given is functional, cell-based.
A short description of data set [17]: Induction of apoptosis in HUCCA cells at 5 uM after 24 hrs by annexin V/propidium iodide staining based flow cytometry (reference value: 9.6%). The class given is functional, Homo sapiens.
The nature of data set [18]: Induction of apoptosis in HUCCA cells at 7.5 uM after 24 hrs by annexin V/propidium iodide staining based flow cytometry (reference value: 9.6%). The class given is functional, Homo sapiens.
A short description of data set [19]: Induction of apoptosis in HUCCA cells at 10 uM after 24 hrs by annexin V/propidium iodide staining based flow cytometry (reference value: 9.6%). The class given is functional, Homo sapiens.
A short description of data set [20]: Induction of apoptosis in RBEC at 5 uM after 24 hrs by annexin V/propidium iodide staining based flow cytometry (reference value: 2.3%). As to conditions: rat.
The nature of data set [21]: Induction of apoptosis in RBEC at 7.5 uM after 24 hrs by annexin V/propidium iodide staining based flow cytometry (reference value: 2.3%). The following applies: rat.
Data set [22] is described as follows: Induction of apoptosis in RBEC at 10 uM after 24 hrs by annexin V/propidium iodide staining based flow cytometry (reference value: 2.3%). The following applies: rat.
A short description of data set [23]: Induction of apoptosis in human QBC939 cells at 5 uM after 24 hrs by annexin V/propidium iodide staining based flow cytometry (reference value: 2.21%). Type of data set: functional.
The nature of data set [24]: Induction of apoptosis in human QBC939 cells at 7.5 uM after 24 hrs by annexin V/propidium iodide staining based flow cytometry (reference value: 2.21%). Type of data set: functional.
The nature of data set [25]: Induction of apoptosis in human QBC939 cells at 10 uM after 24 hrs by annexin V/propidium iodide staining based flow cytometry (reference value: 2.21%). Type of data set: functional.
For data set [26], the system named is HUCCA. As to the kind of experiment: Induction of apoptosis in HUCCA cells after 24 hrs by annexin V/propidium iodide staining based flow cytometry. The class given is functional, cell-based. The following applies: Homo sapiens.
The nature of data set [27]: Induction of apoptosis in RBEC after 24 hrs by annexin V/propidium iodide staining based flow cytometry. As to conditions: rat.
In data set [28] the test system is QBC939. The data set is described as follows: Induction of apoptosis in human QBC939 cells after 24 hrs by annexin V/propidium iodide staining based flow cytometry. The class given is functional, cell-based.
Data set [29] deals with HUCCA. As to the kind of experiment: Induction of apoptosis in HUCCA cells assessed as increase in Bax protein expression after 24 hrs by Western blot analysis. The class given is functional, cell-based. The following applies: Homo sapiens.
Data set [30] can be described thus: Induction of apoptosis in RBEC assessed as increase in Bax protein expression after 24 hrs by Western blot analysis. The following applies: rat.
In data set [31] the test system is QBC939. As to the kind of experiment: Induction of apoptosis in human QBC939 cells assessed as increase in Bax protein expression after 24 hrs by Western blot analysis. The class given is functional, cell-based.
Data set [32] relates to HUCCA. The data set is described as follows: Induction of apoptosis in HUCCA cells assessed as decrease in Bcl-2 protein expression after 24 hrs by Western blot analysis. As to conditions: Homo sapiens. The class given is functional, cell-based.
The nature of data set [33]: Induction of apoptosis in RBEC assessed as decrease in Bcl-2 protein expression after 24 hrs by Western blot analysis. The following applies: rat.
Data set [34] relates to QBC939. As to the kind of experiment: Induction of apoptosis in human QBC939 cells assessed as decrease in Bcl-2 protein expression after 24 hrs by Western blot analysis. The class given is functional, cell-based.
Data set [35] deals with HUCCA. As to the kind of experiment: Induction of apoptosis in HUCCA cells assessed as decrease in PARP cleavage after 24 hrs by Western blot analysis. Type of data set: functional, cell-based. The following applies: Homo sapiens.
Data set [36] in a line: Cell cycle arrest in RBEC cells assessed as accumulation at G2/M phase at 20 uM after 24 hrs by flow cytometric analysis. The class given is cell-based. As to conditions: rat.
Data set [37] in a line: Increase in p53 expression in RBEC at 20 uM after 24 hrs by Western blot analysis. Type of data set: ADME. The following applies: rat.
A short description of data set [38]: Decrease in Cdc2 expression in RBEC at 20 uM after 24 hrs by Western blot analysis. The following applies: rat.
Data set [39] in a line: Induction of apoptosis in HUCCA cells at 20 uM after 24 hrs by annexin V/propidium iodide staining based flow cytometry (reference value: 9.6%). Type of data set: functional, Homo sapiens.
A short description of data set [40]: Induction of apoptosis in RBEC at 20 uM after 24 hrs by annexin V/propidium iodide staining based flow cytometry (reference value: 2.3%). The following applies: rat.
A short description of data set [41]: Induction of apoptosis in human QBC939 cells at 20 uM after 24 hrs by annexin V/propidium iodide staining based flow cytometry (reference value: 2.21%). Type of data set: functional.

For the molecule `C=CCc1cc(/C=C2\CN(CCC)C/C(=C\c3cc(OC)c(OC)cc3OC)C2=O)ccc1O`, the viability at 24 h, 20 µM in data set [1] was < 50%.

`C=CCc1cc(/C=C2\CN(C3CC3)C/C(=C\c3ccc(OC(C)(C)C)cc3)C2=O)ccc1O`: the viability at 24 h, 20 µM in [1] is < 50%.

Consider `C=CCc1cc(/C=C2\CCC/C(=C\c3ccc(O)c(CC=C)c3)C2=O)ccc1O`, for which the viability at 24 h, 20 µM in data set [1] is < 50%.

As for `C=CCc1cc(/C=C2\CSC/C(=C\c3ccc(O)c(CC=C)c3)C2=O)ccc1O`, the IC50 in [2] worked out at 8.7 µM; in data set [3], 9.3 µM; in [5], 9.7 µM. The IC50 at 24 h in [4] was 8.1 to 8.9 µM; in data set [6] it was 9.8 µM. For the same molecule, the viability at 24 h, 20 µM in [1] was < 50%. Moreover, the Stability result in [7] is listed as “Stable”. The Activity entry (in data set [8]; in data set [9]; in [10]; in the data set on HUCCA [11]; in data set [12]; in [13]) was “Dose-dependent effect” throughout. For the same molecule, the Activity result in data set [14] was “Dose-dependent effect”; in the data set on QBC939 [15], “Dose-dependent effect”; in data set [16], “Dose-dependent effect”; in [17], 19.4%; in data set [18] it was 31.8%; in data set [19], 41.6%. Moreover, the Activity is listed as 9.3% in data set [20]; 13.9% in [21]; 39.9% in [22]; 7.6% in [23]; 15.8% in [24]; 38.6% in data set [25]. Besides, the Activity result (in the data set on HUCCA [26]; in data set [27]; in the data set with QBC939 [28]; with HUCCA [29]; in data set [30]; in the data set on QBC939 [31]) was “Dose-dependent effect” throughout. Besides, the Activity result (in the data set on HUCCA [32]; in [33]; with QBC939 [34]; in the data set with HUCCA [35]) was “Dose-dependent effect” throughout.

As for `C=CCc1cc(/C=C2\CN(C(=O)c3ccccc3)C/C(=C\c3ccc(O)c(CC=C)c3)C2=O)ccc1O`, the viability at 24 h, 20 µM in [1] is < 50%.

Regarding `C=CCc1cc(/C=C2\CC/C(=C\c3ccc(O)c(CC=C)c3)C2=O)ccc1O`, in data set [4], the IC50 at 24 h was 10.7 µM. Also, the Stability result in data set [7] is “Stable”.

Consider `C=CCc1cc(/C=C2\CN(S(=O)(=O)CCC)C/C(=C\c3ccc(O)c(CC=C)c3)C2=O)ccc1O`, for which, in data set [1], the viability at 24 h, 20 µM is < 50%.

For `C=CCc1cc(/C=C2\COC/C(=C\c3ccc(O)c(CC=C)c3)C2=O)ccc1O`, the IC50 at 24 h in data set [4] was found to be 15 µM. Moreover, the viability at 24 h, 20 µM in data set [1] is < 50%. Further, in data set [7], the Stability result is reported as “Stable”.

For `C=CCc1cc(/C=C2\CN(C(C)C)C/C(=C\c3ccc(O)c(CC=C)c3)C2=O)ccc1O`, in data set [1], the viability at 24 h, 20 µM was < 50%.

For `C=CCc1cc(/C=C2\CNC/C(=C\c3ccc(O)c(CC=C)c3)C2=O)ccc1O`, the viability at 24 h, 20 µM in [1] was < 50%.

In the case of `O=c1[nH]cc(F)c(=O)[nH]1` [FLUOROURACIL], the figures for the IC50 in [2] and in data set [3] were 13.4 µM and 16.1 µM, respectively. In data set [4], the IC50 at 24 h was found to be 19.3 µM.

As to `C=CCc1cc(/C=C2\CN(C3CC3)C/C(=C\c3ccc(O)c(CC=C)c3)C2=O)ccc1O`, in data set [4], the IC50 at 24 h is 14.4 µM. Moreover, in [1], the viability at 24 h, 20 µM is < 50%.

Take `COc1cc(/C=C/C(=O)CC(=O)/C=C/c2ccc(O)c(OC)c2)ccc1O` [CURCUMIN]: the degraded at 25 min in data set [7] (phosphate buffer, pH 7.4, read-out: Drug degradation) was 50%. In addition, the Activity result is listed as “Non-Toxic” in data set [36]; “Non-Toxic” in data set [37]; “Non-Toxic” in data set [38]; 21.7% in data set [39]; 27.6% in data set [40]; 18.5% in data set [41].
